In ChEMBL document CHEMBL1201862, “PubChem BioAssay data set” (2004):
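Cultured in 96-well plates, cells were exposed to test compound for 48 hours across five concentrations. The concentration for 50% growth inhibition is given as GI50.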 Activity calls are given as the source filed them. Rule as the data show it: active = GI50 up to about 1.1 µM and inactive = higher.

Legend:
Experiment in all cases: NCI-60 cell line screen, 48 h
786-0 = tested on: 786-0
HCT-15 = tested on: HCT-15
HL-60 = tested on: HL-60
LOX IMVI = tested on: LOX IMVI
MCF7 = tested on: MCF7
MDA-MB-435 = tested on: MDA-MB-435
MOLT-4 = tested on: MOLT-4
NCI-H23 = tested on: NCI-H23
OVCAR-4 = tested on: OVCAR-4
OVCAR-5 = tested on: OVCAR-5
RPMI-8226 = tested on: RPMI-8226
SK-MEL-5 = tested on: SK-MEL-5
SK-OV-3 = tested on: SK-OV-3
SR = tested on: SR
T47D = tested on: T47D
TK-10 = tested on: TK-10
U-251 = tested on: U-251
UACC-257 = tested on: UACC-257
NCI-H522 = tested on: NCI-H522

Structure (SMILES) | GI50 (786-0) | GI50 (HCT-15) | GI50 (HL-60) | GI50 (LOX IMVI) | GI50 (MCF7) | GI50 (MDA-MB-435) | GI50 (MOLT-4) | GI50 (NCI-H23) | GI50 (OVCAR-4) | GI50 (OVCAR-5) | GI50 (RPMI-8226) | GI50 (SK-MEL-5) | GI50 (SK-OV-3) | GI50 (SR) | GI50 (T47D) | GI50 (TK-10) | GI50 (U-251) | GI50 (UACC-257) | GI50 (NCI-H522)
CC(=O)OCC1OC(SC2OC(COC(C)=O)C(OC(C)=O)C(OC(C)=O)C2OC(C)=O)C(OC(C)=O)C(OC(C)=O)C1OC(C)=O (configuration not stated) | > 100 µM (inactive) | > 100 µM | > 100 µM (inactive) | > 100 µM (inactive) | > 100 µM (inactive) | > 100 µM (inactive) | > 100 µM (inactive) | > 100 µM (inactive) | > 100 µM (inactive) | > 100 µM (inactive) | > 100 µM (inactive) | > 100 µM (inactive) | > 100 µM (inactive) | > 100 µM (inactive) | > 100 µM (inactive) | > 100 µM (inactive) | > 100 µM (inactive) | > 100 µM (inactive) | –
CC(=O)CC12NC(=O)N(C)N=C1N(C)C(=O)N(C)C2=O (configuration not stated) | 91 µM (inactive) | 57.7 µM | 25.9 µM (inactive) | 19.8 µM (inactive) | 41.8 µM (inactive) | 17 µM (inactive) | 44.8 µM (inactive) | 38.7 µM (inactive) | 71.8 µM (inactive) | > 100 µM (inactive) | 58.1 µM (inactive) | – | > 100 µM (inactive) | 63.7 µM (inactive) | 30.8 µM (inactive) | > 100 µM (inactive) | 34.4 µM (inactive) | 18.6 µM (inactive) | 37.7 µM (inactive)
CC(C)/C(Cl)=N\OC(NC(=O)P(=O)(c1ccccc1)c1ccccc1)(C(F)(F)F)C(F)(F)F | 10.3 µM (inactive) | 15.9 µM | 11.5 µM (inactive) | 11.3 µM (inactive) | 13.3 µM (inactive) | 16.3 µM (inactive) | 8.05 µM (inactive) | 2.99 µM (inactive) | 5 µM (inactive) | 24.3 µM (inactive) | 10.3 µM (inactive) | 13.8 µM (inactive) | 27 µM (inactive) | 14.7 µM (inactive) | 10.9 µM (inactive) | 11.7 µM (inactive) | 2.88 µM (inactive) | 17.8 µM (inactive) | –
N/N=C1/CCCc2nonc21 | > 100 µM (inactive) | > 100 µM | > 100 µM (inactive) | > 100 µM (inactive) | > 100 µM (inactive) | > 100 µM (inactive) | > 100 µM (inactive) | > 100 µM (inactive) | > 100 µM (inactive) | > 100 µM (inactive) | > 100 µM (inactive) | > 100 µM (inactive) | > 100 µM (inactive) | > 100 µM (inactive) | > 100 µM (inactive) | > 100 µM (inactive) | > 100 µM (inactive) | > 100 µM (inactive) | –
Fc1ccccc1C1SCC2=Nc3ccccc3CN21 (configuration not stated) | 95.3 µM (inactive) | > 100 µM | > 100 µM (inactive) | > 100 µM (inactive) | 80.2 µM (inactive) | > 100 µM (inactive) | > 100 µM (inactive) | > 100 µM (inactive) | > 100 µM (inactive) | 92.9 µM (inactive) | > 100 µM (inactive) | 89.7 µM (inactive) | > 100 µM (inactive) | 79.8 µM (inactive) | > 100 µM (inactive) | > 100 µM (inactive) | > 100 µM (inactive) | > 100 µM (inactive) | –
O=C(Nc1cccc(F)c1)c1cc2ccc(O)cc2o/c1=N\c1cccc(F)c1 | 7.85 µM (inactive) | 3.15 µM | 2.65 µM (inactive) | 3.27 µM (inactive) | 3.58 µM (inactive) | 5.12 µM (inactive) | 2.45 µM (inactive) | 2.34 µM (inactive) | 3.59 µM (inactive) | 34 µM (inactive) | 2.87 µM (inactive) | 3.6 µM (inactive) | 13.2 µM (inactive) | 4.5 µM (inactive) | 3.27 µM (inactive) | – | 3.99 µM (inactive) | 9.68 µM (inactive) | 2.99 µM (inactive)
O=C(CN1CCOCC1)NC1=Nc2ncccc2C(=O)NN1 | > 10 µM (inactive) | > 10 µM | > 10 µM (inactive) | > 10 µM (inactive) | > 10 µM (inactive) | > 10 µM (inactive) | > 10 µM (inactive) | > 10 µM (inactive) | – | > 10 µM (inactive) | > 10 µM (inactive) | > 10 µM (inactive) | > 10 µM (inactive) | > 10 µM (inactive) | > 10 µM (inactive) | > 10 µM (inactive) | > 10 µM (inactive) | > 10 µM (inactive) | –
CC(=O)OCC1OC(NC(=S)Nn2c(=O)[nH]c3ccccc3c2=O)C(OC(C)=O)C(OC(C)=O)C1OC(C)=O (configuration not stated) | > 100 µM (inactive) | > 100 µM | 57.4 µM (inactive) | > 100 µM (inactive) | > 100 µM (inactive) | > 100 µM (inactive) | > 100 µM (inactive) | > 100 µM (inactive) | – | > 100 µM (inactive) | > 100 µM (inactive) | > 100 µM (inactive) | > 100 µM (inactive) | 64.9 µM (inactive) | > 100 µM (inactive) | – | > 100 µM (inactive) | > 100 µM (inactive) | > 100 µM (inactive)
